Source: patent US9359404B2, “Methods and products for treating preeclampsia and modulating blood pressure” (Scott & White Healthcare, priority 2011, dated 2016)
Ends that are not written are not given here.

Tests used:
[1] = test system: splenic CLIP+γδ T and B cells; assay: Splenic CLIP+ γδ T cells and B cells after TLR3 or TLR7 activation in pregnant mice (flow cytometry); type: in vivo; settings: for splenic CLIP+γδ T cells: pregnant mice treated with TLR agonist versus vehicle-treated pregnant controls
Excerpt: Next, it was important to determine whether this effect also happens in vivo. Therefore, we tested whether TLR activation via TLR3 or TLR7, which cause PE in mice only if they are pregnant, increases splenic CLIP+γδ T and B cells in mice.
It was shown that MHC class II engagement, in the absence of antigen receptor engagement, can lead to the death of APCs including B cells. Since TLR-mediated activation of B cells results in ectopic CLIP expression (FIGS. 11 and 12) we sought to determine whether CLIP serves as a negative regulator of B cell death. To test this mouse splenic B cells from C57B16 mice or CLIP KO mice were activated, with or without a TLR agonist, for 48 hrs. […] Splenocytes were analyzed by flow cytometry.

Aortic rings = assay: Vasodilation/endothelial function of aortic rings (isometric force transducer); type: in vivo; settings: vessels of TLR agonist-treated pregnant mice, phenylephrine contraction, acetylcholine relaxation
Experimental: Experimental Design: Mice were treated as described in Example 1.
Vasodilation/Endothelial Function: Aortic rings were connected to an isometric force transducer in a custom-made 15-ml organ chamber filled with 37° C. physiological salt solution (119 mM NaCl, 4.7 mM KCl, 25 mM NaHCO3, 1.18 mM KH2PO4, 1.17 mM MgSO4-7H2O, 11.1 mM Dextrose, 2.5 mM CaCl2) with 95% O2-5% CO2. All experiments were performed in the presence of indomethacin […] to inhibit prostacyclin production by cyclooxygenase. Passive tension on the vessels was set at 400 mg based on previously generated length-tension curves, and isometric force generation was recorded continuously with a PowerLab system (AD Instruments, Colorado Springs, Colo.). After a 60-min equilibration period, vessels were contracted with phenylephrine […] and repeated until reproducible contractions were obtained. […] was administered to test the functional integrity of endothelium as measured by a relaxation response. Concentration-response curves were obtained in a half-log, cumulative fashion in response to acetylcholine (1 nM to […]) following contraction to an EC70 concentration of phenylephrine. Relaxation responses were expressed as percent relaxation from phenylephrine-induced contraction. […]

pregnant mice [2] = assay: Systolic blood pressure (tail-cuff plethysmography) in pregnant mice given TLR agonists with or without TPP; type: in vivo, C57BL/6 mice; settings: pregnant mice treated with TLR agonist alone, day 17
Experimental: (§1) Experimental Design: C57BL/6 female mice were bred with male C57BL/6 mice. At day 13 mice were injected IP with vehicle, Poly I:C (SIGMA PO913 50 mg), CLO097 (Invivogen tlrl-C95-5), or R837 (Invivogen tlrl imq) with or without TPP (FRIMAVLAS (SEQ ID NO: 5). Mice were injected a total of 3 times, every other day. At day 18 mice were euthanized, uterus/pups, blood, blood vessels, and spleen were removed.
Blood Pressure: Systolic arterial blood pressure was measured by tail-cuff plethysmography. […] were trained for three days prior to data collection. Animals were warmed to 32° C. and measurements were taken using an IITC Model 59 amplifier (Woodland Hills, Calif.), a system which correlates well with telemetry measurements of systolic blood pressure.
Pregnant mice (P) were treated with one of three TLR agonists to induce a physiological condition which mimics preeclampsia. Poly I:C is a TLR3 agonist and is well established in inducing characteristics of preeclampsia in mice. R837 is a […] activator of TLR7 but not TLR8. Similar to Poly I:C R837 induces characteristics of preeclampsia in mice. CLO097 is a […] that activates TLR7 and TLR8. While CLO097 induces some of the characteristics of preeclampsia the response is somewhat muted. […] The blood pressure of each mouse was measured on day 17 following treatment.

[3] = test system: CLIP on the surface of B220 cells; assay: Immune cell markers on splenocytes: CLIP on B220 cells; type: in vivo; settings: pregnant mice, Poly I:C alone
Experimental: Experimental Design: Mice were treated as described in Example 1. Splenocytes were isolated and stained for CD3, CD4, CD8, CD11b, Ly6G/C, CD25, FoxP3, CD19, B220, CD5, CLIP, and Gamma Delta TCR.
FIG. 9 is a set of graphs that depicts the removal of all CLIP (9A) versus bright CLIP (9B) and FIG. 9C from the surface of B220 cells. […] TLR agonists include CLO097; R837, and Poly I:C. FIG. 9C depicts the percentage of CLIP+cells resulting from Poly I:C stimulation with and without TPP.

[4] = test system: pregnant mice with PE induced by TLR3 or TLR7 activation; assay: Prevention of TLR3/TLR7-induced PE in pregnant mice, daily TPP gestational days 13-17; type: in vivo
Excerpt: FIG. 14 is a series of graphs depicting results from the daily administration of the CLIP-displacing peptide TPP. Daily administration of the CLIP-displacing peptide TPP (“Pep”-gestational days 13-17) prevented the development of hypertension, endothelial dysfunction, proteinuria, fetal demise, increased γδT cells, and decreased regulatory T cells in pregnant (P) mice treated with the TLR7 agonist R837 (PR mice) or the TLR3 agonist poly I:C (PPIC mice) on gestational days 13, 15, and 17.
TPP was utilized to displace CLIP on immune cells in mice during pregnancy.

pregnant mice [5] = assay: Total number of pups and malformed pups at day 18; type: in vivo, C57BL/6 mice; settings: day 18, versus normal pregnancies or pregnancies treated with TLR agonists
Experimental: as §1
The number of pups and malformed pups was relatively consistent across all groups at this time point.

Compound	B cell death (splenic B cells) ([1]; PE mice versus normal pregnancy)	splenic CLIP+γδ T cells [1]	relaxation response (Aortic rings)	blood pressure (pregnant mice [2])	CLIP+ B cells [3]	safety, side effects on the mother or the pups [4]	number of malformed pups (pregnant mice [5])	total number of pups (pregnant mice [5])
Poly I:C	did not experience the increase in B cell death	increased significantly	relaxation response is delayed	significantly increased blood pressure	significant increase			
CC(C)Cn1cnc2c(N)nc3ccccc3c21 [R837]		increased significantly	relaxation response is delayed	significantly increased blood pressure				
FRIMAVLAS [TPP, FRIMAVLAS]						safe in mice and has no side effects on the mother or the pups	caused no increase	caused no increase
